The test system of data set [1] is β-galactosidase activity. As to the kind of experiment: β-galactosidase staining of tissue sections from non-transgenic controls treated with 3-MC. It is filed as in vivo, mouse. An excerpt: All timings in this protocol are critical.
For data set [2], the system named is modified Ah receptor. Put plainly: Induction of the transgene in DBA mice. Type of data set: in vivo, mouse. From the text: (§1) In addition to the use of this promoter as a general regulatable system for the expression of transgenes this strategy can be exploited to obtain expression targeted to specific cell types. Thus, for example, when the transgene is incorporated into cells containing a modified hydrocarbon receptor, the inducability of the transgene is modulated. […] In addition, the introduction of an Ah receptor responsive to 3-methylcholanthrene into a specific cell, e.g. through the use of a tissue-specific promoter element, will allow tissue-specific induction of a transgene in this mouse on administration of 3-methylcholanthrene. This strategy exploits the fact that the Ah receptor in DBA mice through mutation is non-responsive to certain classes of agents which induce by this mechanism. […] Therefore, using a combination of different forms of the Ah receptor with different types of inducing agent will allow much more precise regulation of transgene expression in cells.

In data set [3] the test system is CYP1A1/β-galactosidase promoter/reporter. As to the kind of experiment: β-galactosidase staining of tissue sections from transgenic mice carrying pAhIR1β-gal after 3-MC induction. Particulars: for β-Galactosidase staining intensity: mice carrying pAHIR1, 3-MC 40 μg/g once a day for 3 days; for induction of lacZ expression in the liver: 9 kb rat CYP1A1 promoter-lacZ transgenic mice, IP 40 mg/kg for 3 days, 40 mg/kg. An excerpt:
The protocol described below has been adapted to analyse the β-galactosidase expression from transgenic mice and in this regard determine the activity of the P450 1A1 promoter which is effectively driving the expression of this transgene in response to induction of P450 1A1 by the carcinogenic agent 3-methylcholanthrene. All timings in this protocol are critical.
When performing this technique it is essential to incorporate a positive control into the reaction where a tissue sample which is a known expresser of β-galactosidase is treated in an identical manner to that of the test tissues. […] The positive control used in these experiments was a small intestine sample which was a known high expressor of the detection enzyme.
1) The mouse under test was killed by cervical dislocation and the organs required were removed using a sterile scalpel. A small representative piece of mouse organ was fixed on to moistened cork using commercial adhesive. The tissue sample on the cork was then frozen in liquid nitrogen chilled freezing spray (Histological Supplies LTD) for approximately 30 seconds. The tissue sample was then double wrapped in parafilm, placed in a plastic bag, sealed and snap frozen in liquid nitrogen.
4) The metal chuck was placed in the cryostat holder and turned until the tip of the tissues touched the front of the cutting blade. The cryostat was set to obtain small sections approximately 8 microns thickness. By turning the handle of the cryostat small sections of tissue were obtained. Sections were continually taken until a representative section of tissue was obtained. The antiroll plate was then placed against the blade and a section to be harvested was cut.
9) Slides were produced as described using the cryostat and the tissue was fixed in 0.5% glutaraldehyde (in PBS) for 1 day at 4° C. 10) The tissue was then incubated in PBS +2mM MgCl2+30% sucrose at 4° C. overnight.
13) 2-3 hours in X-gal solution at 37° C. or even overnight.
19) The slides were then mounted in DPX and viewed under a microscope. It was important at this stage that the slides were never permitted to dry out since this will affect the quality of the results. The slides should be continually dipped into the histoclear solution to prevent this occurring while the slides are being prepared.
The expected results from the β-galacotsidase staining assay are areas of pink which uniformly stain the tissue section and small areas of blue in the tissue section which indicate areas where X-gal has been metabolised by the β-galactosidase enzyme.
The inducibility of expression. The pAhIR1βgal transgene in the liver was examined after administration of 3-methylcholanthrene (3-mc). The inducing agent was administered IP at a dosage of 40 mg/kg for 3 days and the animals were sacrificed for expression on day four. The induction in the transgenic animals was controlled by:
a) administration of corn oil to transgenic mice,
b) the administration of 3-methylcholanthrene (3-mc) to non-transgenic littermates.
lacZ expression was also investigated in a number of other tissues. The same procedure for sectioning and staining tissue sections was employed.

Data set [4] has as its system Ah receptor. As to the kind of experiment: Induction of the transgene in C57 BL6 mice. Type of data set: in vivo, mouse.
Text: as §1

Data set [5] has as its system CYP1A1 dioxin-responsive promoter coupled to CAT reporter gene. Particulars: 2.58 kbp mouse CYP1A1 fragment-CAT transgenic mice, cited from earlier work.

Structures are written as SMILES. Some results are limits rather than exact numbers.

As for `Cc1ccc2cc3c(ccc4ccccc43)c3c2c1CC3` [3-methylcholanthrene], the β-Galactosidase staining intensity entry in data set [1] (Duodenum) is given as “+”; in data set [1] (Ileum) it was “+”; in data set [1] (Jejunum), “+”; in data set [1] (Kidney), “+”; in data set [3] (Adrenal gland), “+++”; in data set [3] (Colon), “+”. In addition, the β-Galactosidase staining intensity result in data set [3] (Duodenum) is “+++”; in data set [3] (Forestomach), “+”; in data set [3] (Ileum), “+++”; in data set [3] (Jejunum), “+++”; in data set [3] (Kidney) it was “++”; in data set [3] (Liver) it was “++++”. Also, the β-Galactosidase staining intensity entry is listed as “+” in data set [3] (Lung); “++” in data set [3] (Oesophagus); “+” in data set [3] (Ovary); “+” in data set [3] (Pancreas); “++” in data set [3] (Spleen); “+” in data set [3] (Stomach). Further, the β-Galactosidase staining intensity result in data set [3] (Testes) is reported as “+”. Moreover, the “induction of the transgene” value is “not an inducer of the transgene” in data set [2] and “an inducer of the transgene” in data set [4]. Moreover, the “3-mc induced lacZ expression in tissues” value in data set [3] (Liver, Kidney, Brain (specific regions), Duodenum, Jejunum, Ileum, Lung, Spleen, Oesophagus, Colon, Pancreas, Adrenal Gland, Ovary) is reported as “detected”. The “induction of lacZ expression in the liver” value is reported as “very high” in data set [3] (listed as 3-mc) and “massive induction” in data set [3] (listed as 3-methyl-cholanthene). Besides, in data set [3] (spleen and bowel, 9 kb rat CYP1A1 promoter transgenic mice), the “induction of expression in spleen and bowel” value is “substantial induction”. In addition, the “increase of hepatic expression levels (CAT reporter)” value in data set [5] (liver, versus mock-induction) is given as ≤ 10,000 fold. Further, the “induction of CAT expression” value in data set [5] (spleen, small bowel, kidney and lung) is recorded as “More modest levels of induction”.
As for `Clc1cc2c(cc1Cl)Oc1cc(Cl)c(Cl)cc1O2` [tetrachlorodibenzodioxin], in data set [2], the “induction of the transgene” value is listed as “induction can still be obtained”.

These data come from patent publication US20030028906A1, “Gene control” (priority 1995, published 2003).
